Reference: the NIST ThermoML archive (doi:10.1021/je800248w)
Numbers after ± are expanded uncertainties.

Tests used:
[1] = molar heat capacity at constant pressure; conditions: 101.3 kPa, Liquid, Small sample (50 mg) DSC
[2] = molar heat capacity at constant pressure; xn = mol fraction of the nth substance listed; conditions: 101.3 kPa, Liquid, Small sample (50 mg) DSC, x1 = 1

Structure (SMILES)	molar heat capacity at constant pressure ([1]; 283.15 K)	molar heat capacity at constant pressure ([1]; 293.15 K)	molar heat capacity at constant pressure ([1]; 303.15 K)	molar heat capacity at constant pressure ([1]; 313.15 K)	molar heat capacity at constant pressure ([1]; 323.15 K)	molar heat capacity at constant pressure ([1]; 333.15 K)	molar heat capacity at constant pressure ([1]; 343.15 K)	molar heat capacity at constant pressure ([2]; 283.15 K)	molar heat capacity at constant pressure ([2]; 293.15 K)	molar heat capacity at constant pressure ([2]; 303.15 K)	molar heat capacity at constant pressure ([2]; 313.15 K)	molar heat capacity at constant pressure ([2]; 323.15 K)	molar heat capacity at constant pressure ([2]; 333.15 K)	molar heat capacity at constant pressure ([2]; 343.15 K)
O [water]	75 ± 6 J/K/mol	75 ± 6 J/K/mol	75 ± 6 J/K/mol	75 ± 6 J/K/mol	75 ± 6 J/K/mol	75 ± 6 J/K/mol	75 ± 6 J/K/mol							
O [water] + CCOS(=O)(=O)[O-].CCn1cc[n+](C)c1								75 ± 6 J/K/mol	75 ± 6 J/K/mol	75 ± 6 J/K/mol	75 ± 6 J/K/mol	75 ± 6 J/K/mol	75 ± 6 J/K/mol	75 ± 6 J/K/mol
CCn1cc[n+](C)c1.O=S(=O)([O-])C(F)(F)F [1-ethyl-3-methylimidazolium trifluoromethanesulfonate]	353 ± 29 J/K/mol	358 ± 29 J/K/mol	366 ± 30 J/K/mol	371 ± 30 J/K/mol	376 ± 31 J/K/mol	380 ± 31 J/K/mol	384 ± 31 J/K/mol							
CCn1cc[n+](C)c1.O=C([O-])C(F)(F)F [1-ethyl-3-methylimidazolium trifluoroacetate]	308 ± 25 J/K/mol	313 ± 25 J/K/mol	320 ± 26 J/K/mol	324 ± 26 J/K/mol	328 ± 27 J/K/mol	332 ± 27 J/K/mol	337 ± 27 J/K/mol							
CCOS(=O)(=O)[O-].CCn1cc[n+](C)c1 [1-ethyl-3-methylimidazolium ethyl sulfate]	365 ± 30 J/K/mol	371 ± 30 J/K/mol	380 ± 31 J/K/mol	386 ± 31 J/K/mol	392 ± 32 J/K/mol	397 ± 32 J/K/mol	403 ± 33 J/K/mol							

Second part, the compound after the results:

molar heat capacity at constant pressure ([1]; 283.15 K)	molar heat capacity at constant pressure ([1]; 293.15 K)	molar heat capacity at constant pressure ([1]; 303.15 K)	molar heat capacity at constant pressure ([1]; 313.15 K)	molar heat capacity at constant pressure ([1]; 323.15 K)	molar heat capacity at constant pressure ([1]; 333.15 K)	molar heat capacity at constant pressure ([1]; 343.15 K)	molar heat capacity at constant pressure ([2]; 283.15 K)	molar heat capacity at constant pressure ([2]; 293.15 K)	molar heat capacity at constant pressure ([2]; 303.15 K)	molar heat capacity at constant pressure ([2]; 313.15 K)	molar heat capacity at constant pressure ([2]; 323.15 K)	molar heat capacity at constant pressure ([2]; 333.15 K)	molar heat capacity at constant pressure ([2]; 343.15 K)	Structure (SMILES)
							75 ± 6 J/K/mol	75 ± 6 J/K/mol	75 ± 6 J/K/mol	75 ± 6 J/K/mol	75 ± 6 J/K/mol	75 ± 6 J/K/mol	75 ± 6 J/K/mol	O [water] + CCn1cc[n+](C)c1.O=C([O-])C(F)(F)F
							75 ± 6 J/K/mol	75 ± 6 J/K/mol	75 ± 6 J/K/mol	75 ± 6 J/K/mol	75 ± 6 J/K/mol	75 ± 6 J/K/mol	75 ± 6 J/K/mol	O [water] + CCn1cc[n+](C)c1.O=S(=O)([O-])C(F)(F)F
